Columns and labels:
Assay type in all cases: binding
KRAS WT = biological target: T1, KRAS WT (Homo sapiens, UniProt P01116); experiment: HTRF assay of wildtype K-Ras interaction with SOS1 (PPI-HTRF); settings: HTRF, 5 nM KRAS WT; read-out: PPI-HTRF-5 nM KRAS WT
T1 construct: made in house; host or cells: E. coli, e.g. BL21 (DE3)
Procedure, shortened: (§1)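 GST-KRas + antiGST-Eu(K); His-hSOS1 + anti-6His-XL665. Buffer ~5 mM HEPES pH 7.4/150 mM NaCl/1 mM DTT/0.05% BSA/0.0025% Igepal. Cpd in DMSO, duplicates 10–0.01 μM; ≥10 min incubation, HTRF 620/665 nm, IC50 from ratio.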

KRAS G12S = biological target: T2, KRAS G12S (Homo sapiens, UniProt P01116, G12S); experiment: HTRF assay of K-Ras G12S interaction with SOS1 (PPI-HTRF); settings: 5 nM KRAS G12S, read-out: PPI-HTRF-5 nM KRAS G12S
T2 construct: made in house; host or cells: E. coli, e.g. BL21 (DE3)
T2 sequence (P01116 1-188 isoform P01116-2 G12S): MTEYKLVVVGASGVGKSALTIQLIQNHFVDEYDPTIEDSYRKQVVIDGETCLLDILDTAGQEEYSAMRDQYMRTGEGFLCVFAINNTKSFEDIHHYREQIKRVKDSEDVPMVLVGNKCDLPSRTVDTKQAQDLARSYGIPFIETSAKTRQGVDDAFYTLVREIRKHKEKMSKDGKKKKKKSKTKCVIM
Procedure, shortened: as §1

KRAS G12D = biological target: T3, KRAS G12D (Homo sapiens, UniProt P01116, G12D); experiment: HTRF assay of K-Ras G12D interaction with SOS1 (PPI-HTRF); settings: HTRF, 5 nM KRAS G12D; read-out: PPI-HTRF-5 nM KRAS G12D
T3 construct: made in house; host or cells: E. coli, e.g. BL21 (DE3)
T3 sequence (P01116 1-188 isoform P01116-2 G12D): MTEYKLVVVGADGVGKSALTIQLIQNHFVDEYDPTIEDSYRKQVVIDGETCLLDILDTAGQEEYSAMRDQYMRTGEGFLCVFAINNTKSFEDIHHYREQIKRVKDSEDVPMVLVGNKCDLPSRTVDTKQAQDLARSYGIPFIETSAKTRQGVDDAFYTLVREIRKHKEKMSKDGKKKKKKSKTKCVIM
Procedure, shortened: as §1

T1 sequence (P01116 1-188 isoform P01116-2): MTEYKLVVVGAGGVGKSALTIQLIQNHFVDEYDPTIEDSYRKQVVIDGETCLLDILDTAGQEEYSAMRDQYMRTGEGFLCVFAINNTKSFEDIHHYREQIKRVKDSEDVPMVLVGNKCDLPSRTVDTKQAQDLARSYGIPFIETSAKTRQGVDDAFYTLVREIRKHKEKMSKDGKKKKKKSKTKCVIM

Row | IC50 (KRAS WT) [µM] | IC50 (KRAS G12S) [µM] | IC50 (KRAS G12D) [µM] | Compound
1 | < 5 | < 5 | < 5 | Cc1cn(C(=O)N2CCC23CCN(c2nc(OC[C@@]45CCCN4C[C@H](F)C5)nc4c(F)c(-c5ccc(F)c6sc(N)c(C#N)c56)c(Cl)cc24)C3)nn1 (stereo partly drawn) [Compound 336, 2-amino-4-(6-chloro-8-fluoro-2-(((2R,7aS)-2-fluorotetrahydro-1H-pyrrolizin-7a(5H)-yl)methoxy)-4-(1-(4-methyl-1H-1,2,3-triazole-1-carbonyl)-1,6-diazaspiro[3.4]octan-6-yl)quinazolin-7-yl)-7-fluorobenzo[b]thiophene-3-carbonitrile]
2 | < 5 | < 5 | < 5 | Cc1nc(C(C)C)nn1C(=O)N1CCC12CCN(c1nc(OC[C@@]34CCCN3C[C@H](F)C4)nc3c(F)c(-c4ccc(F)c5sc(N)c(C#N)c45)c(Cl)cc13)C2 (stereo partly drawn) [Compound 266, 2-amino-4-(6-chloro-8-fluoro-2-(((2R,7aS)-2-fluorotetrahydro-1H-pyrrolizin-7a(5H)-yl)methoxy)-4-(1-(3-isopropyl-5-methyl-1H-1,2,4-triazole-1-carbonyl)-1,6-diazaspiro[3.4]octan-6-yl)quinazolin-7-yl)-7-fluorobenzo[b]thiophene-3-carbonitrile]
3 | < 5 | < 5 | < 5 | C[C@H]1CN[C@]12CCN(c1nc(OC[C@@]34CCCN3C[C@H](F)C4)nc3c(F)c(-c4ccc(F)c5sc(N)c(C#N)c45)c(Cl)cc13)C2 [Compound 334, 2-amino-4-(6-chloro-8-fluoro-2-(((2R,7aS)-2-fluorotetrahydro-1H-pyrrolizin-7a(5H)-yl)methoxy)-4-((3S,4R)-3-methyl-1,6-diazaspiro[3.4]octan-6-yl)quinazolin-7-yl)-7-fluorobenzo[b]thiophene-3-carbonitrile]
4 | < 5 | < 5 | < 5 | C[C@H]1CN(C(=O)n2cnc(Br)n2)[C@]12CCN(c1nc(OC[C@@]34CCCN3C[C@H](F)C4)nc3c(F)c(-c4ccc(F)c5sc(N)c(C#N)c45)c(Cl)cc13)C2 [Compound 224, 2-amino-4-(4-((3S,4R)-1-(3-bromo-1H-1,2,4-triazole-1-carbonyl)-3-methyl-1,6-diazaspiro[3.4]octan-6-yl)-6-chloro-8-fluoro-2-(((2R,7aS)-2-fluorotetrahydro-1H-pyrrolizin-7a(5H)-yl)methoxy)quinazolin-7-yl)-7-fluorobenzo[b]thiophene-3-carbonitrile]
5 | < 5 | < 5 | < 5 | Nc1nc2c(-c3c(Cl)cc4c(N5CCC6(CCN6C(=O)n6cncn6)C5)nc(OC[C@@]56CCCN5C[C@H](F)C6)nc4c3F)ccc(F)c2s1 (stereo partly drawn) [Compound 264, (6-(7-(2-amino-7-fluorobenzo[d]thiazol-4-yl)-6-chloro-8-fluoro-2-(((2R,7aS)-2-fluorotetrahydro-1H-pyrrolizin-7a(5H)-yl)methoxy)quinazolin-4-yl)-1,6-diazaspiro[3.4]octan-1-yl)(1H-1,2,4-triazol-1-yl)methanone]
6 | < 5 | < 5 | < 5 | Nc1nc2c(-c3c(Cl)cc4c(N5CCC6(CCN6)C5)nc(OC[C@@]56CCCN5C[C@H](F)C6)nc4c3F)ccc(F)c2s1 (stereo partly drawn) [Compound 242, 4-(6-chloro-8-fluoro-2-(((2R,7aS)-2-fluorotetrahydro-1H-pyrrolizin-7a(5H)-yl)methoxy)-4-(1,6-diazaspiro[3.4]octan-6-yl)quinazolin-7-yl)-7-fluorobenzo[d]thiazol-2-amine]
7 | < 5 | < 5 | < 5 | N#Cc1c(N)sc2c(F)ccc(-c3c(Cl)cc4c(N5CCC6(C5)N(C(=O)C5CC5(F)F)CC6(F)F)nc(OC[C@@]56CCCN5C[C@H](F)C6)nc4c3F)c12 (stereo partly drawn) [Compound 228, 2-amino-4-(6-chloro-4-(1-(2,2-difluorocyclopropane-1-carbonyl)-3,3-difluoro-1,6-diazaspiro[3.4]octan-6-yl)-8-fluoro-2-(((2R,7aS)-2-fluorotetrahydro-1H-pyrrolizin-7a(5H)-yl)methoxy)quinazolin-7-yl)-7-fluorobenzo[b]thiophene-3-carbonitrile]
